The source made the active and inactive calls. No cut-off for these calls is given here.
Assays:
PANC-1 [1] = experiment: Antiproliferative activity against human PANC-1 cells expressing wild-type BRCA assessed as inhibition of cell survival incubated for 5 days by CCK8 assay; format: functional, cell-based; conditions: PANC-1, 120 h
BXPC-3 = experiment: Antiproliferative activity against human BXPC-3 cells expressing wild-type BRCA assessed as inhibition of cell survival incubated for 5 days by CCK8 assay; format: functional, cell-based; conditions: BXPC-3, 120 h
CAPAN-1 = experiment: Antiproliferative activity against human CAPAN-1 cells expressing BRCA-/- assessed as inhibition of cell survival incubated for 5 days by CCK8 assay; format: functional, cell-based; conditions: CAPAN-1, 120 h
PANC-1 [2] = experiment: Induction of DNA damage in human PANC-1 cells assessed as increase in gamma-H2AX level at 2 uM in presence of JQ1 by Western blot analysis; format: functional, cell-based
PANC-1 [3] = experiment: Induction of DNA damage in human PANC-1 cells assessed as decrease in BRCA1 level at 2 uM in presence of JQ1 by Western blot analysis; format: functional, cell-based
PANC-1 [4] = experiment: Induction of cell cycle arrest in human PANC-1 cells assessed as accumulation at S phase at 0.6 uM incubated for 24 hrs by PI staining based flow cytometry (reference value: 38.94 %); format: functional
PANC-1 [5] = experiment: Induction of cell cycle arrest in human PANC-1 cells assessed as accumulation at G1 phase at 1.2 uM incubated for 24 hrs by PI staining based flow cytometry (reference value: 51.70 %); format: functional
PANC-1 [6] = experiment: Induction of cell cycle arrest in human PANC-1 cells assessed as accumulation at S phase at 2.5 uM incubated for 24 hrs by PI staining based flow cytometry (reference value: 38.94 %); format: functional
PANC-1 [7] = experiment: Induction of cell cycle arrest in human PANC-1 cells assessed as accumulation at G2 phase at 2.5 uM incubated for 24 hrs by PI staining based flow cytometry (reference value: 9.36 %); format: functional
PANC-1 [8] = experiment: Induction of cell cycle arrest in human PANC-1 cells assessed as accumulation at G1 phase at 5 uM incubated for 24 hrs by PI staining based flow cytometry (reference value: 51.70 %); format: functional
PANC-1 [9] = experiment: Induction of cell cycle arrest in human PANC-1 cells assessed as accumulation at G2 phase at 5 uM incubated for 24 hrs by PI staining based flow cytometry (reference value: 9.36 %); format: functional
PANC-1 [10] = experiment: Induction of cell cycle arrest in human PANC-1 cells assessed as accumulation at G2 phase at 10 uM incubated for 24 hrs by PI staining based flow cytometry (reference value: 9.36 %); format: functional
PANC-1 [11] = experiment: Induction of cell cycle arrest in human PANC-1 cells assessed as accumulation at G1 phase at 2 uM incubated for 24 hrs by PI staining based flow cytometry (reference value: 51.70 %); format: functional
PANC-1 [12] = experiment: Induction of cell cycle arrest in human PANC-1 cells assessed as accumulation at S phase at 2 uM incubated for 24 hrs by PI staining based flow cytometry (reference value: 38.94 %); format: functional
PANC-1 [13] = experiment: Induction of cell cycle arrest in human PANC-1 cells assessed as accumulation at G2 phase at 2 uM incubated for 24 hrs by PI staining based flow cytometry (reference value: 9.36 %); format: functional
PANC-1 [14] = experiment: Induction of apoptosis in human PANC-1 cells assessed as viable cells at 0.6 uM incubated for 48 hrs by Annexin V-FITC/PI staining based flow cytometry (reference value: 91.64 %); format: functional; conditions: read-out: Activity
PANC-1 [15] = experiment: Induction of apoptosis in human PANC-1 cells assessed as necrotic cells at 1.2 uM incubated for 48 hrs by Annexin V-FITC/PI staining based flow cytometry (reference value: 3.09 %); format: functional
PANC-1 [16] = experiment: Induction of apoptosis in human PANC-1 cells assessed as viable cells at 2.5 uM incubated for 48 hrs by Annexin V-FITC/PI staining based flow cytometry (reference value: 91.64 %); format: functional; conditions: read-out: Activity
PANC-1 [17] = experiment: Induction of apoptosis in human PANC-1 cells assessed as late apoptotic cells at 5 uM incubated for 48 hrs by Annexin V-FITC/PI staining based flow cytometry (reference value: 3.87 %); format: functional
PANC-1 [18] = experiment: Induction of apoptosis in human PANC-1 cells assessed as viable cells at 2 uM incubated for 48 hrs by Annexin V-FITC/PI staining based flow cytometry (reference value: 91.64 %); format: functional; conditions: read-out: Activity
PANC-1 [19] = experiment: Induction of apoptosis in human PANC-1 cells assessed as early apoptotic cells at 2 uM incubated for 48 hrs by Annexin V-FITC/PI staining based flow cytometry (reference value: 1.41 %); format: functional
PANC-1 [20] = experiment: Induction of apoptosis in human PANC-1 cells assessed as late apoptotic cells at 2 uM incubated for 48 hrs by Annexin V-FITC/PI staining based flow cytometry (reference value: 3.87 %); format: functional
PANC-1 [21] = experiment: Induction of apoptosis in human PANC-1 cells assessed as necrotic cells at 2 uM incubated for 48 hrs by Annexin V-FITC/PI staining based flow cytometry (reference value: 3.09 %); format: functional
PANC-1 [22] = experiment: Induction of apoptosis in human PANC-1 cells assessed as early apoptotic cells at 2 uM incubated for 48 hrs in presence of JQ1 by Annexin V-FITC/PI staining based flow cytometry (reference value: 1.41 %); format: functional
PANC-1 [23] = experiment: Induction of apoptosis in human PANC-1 cells assessed as late apoptotic cells at 2 uM incubated for 48 hrs in presence of JQ1 by Annexin V-FITC/PI staining based flow cytometry (reference value: 3.87 %); format: functional
PANC-1 [24] = experiment: Induction of apoptosis in human PANC-1 cells assessed as necrotic cells at 2 uM incubated for 48 hrs in presence of JQ1 by Annexin V-FITC/PI staining based flow cytometry (reference value: 3.09 %); format: functional
PANC-1 [25] = experiment: Antitumor activity against human PANC-1 cells xenografted in BALB/c mouse assessed as reduction in tumor growth at 40 mg/kg, ip for 4 weeks administered for 5 days consecutively and 2 days without treatment on every week in presence of JQ1; format: functional, organism-based
PANC-1 [26] = experiment: Antitumor activity against human PANC-1 cells xenografted in BALB/c mouse assessed as inhibition of tumor volume at 40 mg/kg, ip for 4 weeks administered for 5 days consecutively and 2 days without treatment on every week in presence of JQ1; format: functional, organism-based
[27] = Toxicity in BALB/c mouse xenografted with human PANC-1 cells assessed as animal mortality at 40 mg/kg, ip for 4 weeks administered for 5 days consecutively and 2 days without treatment on every week in presence of JQ1; format: organism-based; conditions: in vivo, 672 h
[28] = Toxicity in BALB/c mouse xenografted with human PANC-1 cells assessed as body weight loss at 40 mg/kg, ip for 4 weeks administered for 5 days consecutively and 2 days without treatment on every week; format: organism-based; conditions: in vivo, 672 h
[29] = Toxicity in BALB/c mouse xenografted with human PANC-1 cells assessed as pathological changes in heart at 40 mg/kg, ip for 4 weeks administered for 5 days consecutively and 2 days without treatment on every week in presence of JQ1 by H and E staining based analysis; format: organism-based; conditions: in vivo, 672 h
PANC-1 [30] = experiment: Induction of cell cycle arrest in human PANC-1 cells assessed as accumulation at G0/G1 phase at 0.12 to 2 uM incubated for 24 hrs by PI staining based flow cytometry; format: functional; conditions: dose 0.12-2 µM

Structure (SMILES) | IC50 (PANC-1 [1]) [µM] | IC50 (BXPC-3) [µM] | IC50 (CAPAN-1) [µM] | Activity (PANC-1 [2]) | Activity (PANC-1 [3]) | Activity (PANC-1 [4]) [%] | Activity (PANC-1 [5]) [%] | Activity (PANC-1 [6]) [%] | Activity (PANC-1 [7]) [%] | Activity (PANC-1 [8]) [%] | Activity (PANC-1 [9]) [%] | Activity (PANC-1 [10]) [%] | Activity (PANC-1 [11]) [%] | Activity (PANC-1 [12]) [%] | Activity (PANC-1 [13]) [%] | viability at 0.6 µM (PANC-1 [14]) [%] | viability at 2 µM (PANC-1 [18]) [%] | Activity (PANC-1 [19]) [%] | Activity (PANC-1 [20]) [%] | Activity (PANC-1 [21]) [%] | also measured
O=C(c1cc(Cc2n[nH]c(=O)c3ccccc23)ccc1F)N1CCN(C(=O)C2CC2)CC1 [OLAPARIB] | < 10 | < 10 | < 10 | Active | Active | 42.54 | 46.59 | 41.49 | 14.19 | 40.8 | 15.24 | 19.74 | 45.99 | 39.4 | 14.61 | 90.3 | 89.7 | 3.48 | 4.61 | 2.23 | Activity (PANC-1 [15]): 4.05%; viability at 2.5 µM (PANC-1 [16]): 89.2%; Activity (PANC-1 [17]): 4.7%; Activity (PANC-1 [22]): 5.44%; Activity (PANC-1 [23]): 21.52%; Activity (PANC-1 [24]): 4.77%; Activity (PANC-1 [25]): Active; inhibition (PANC-1 [26]): Active; Activity [27]: Non-toxic; Activity [28]: Non-toxic; Activity [29]: Non-toxic
O=C1CCC(N2C(=O)c3cccc(NC(=O)CNCCCCCCCCCCC(=O)N4CCN(C(=O)c5cc(Cc6n[nH]c(=O)c7ccccc67)ccc5F)CC4)c3C2=O)C(=O)N1 (centres undefined) | < 10 | < 10 | < 10 | Active | Active | 44.14 | 45.72 | 43.26 | 12.98 | 43.66 | 13.63 | 15.94 | 43.66 | 41.71 | 14.63 | 88.9 | 86.3 | 4.35 | 5.84 | 3.54 | Activity (PANC-1 [30]): 43.66%; Activity (PANC-1 [15]): 2.74%; viability at 2.5 µM (PANC-1 [16]): 88.9%; Activity (PANC-1 [17]): 4.37%; Activity (PANC-1 [22]): 8.77%; Activity (PANC-1 [23]): 21.9%; Activity (PANC-1 [24]): 5%; Activity (PANC-1 [25]): Active; inhibition (PANC-1 [26]): Active; Activity [27]: Non-toxic; Activity [28]: Non-toxic; Activity [29]: Non-toxic
Cc1sc2c(c1C)C(c1ccc(Cl)cc1)=N[C@@H](CC(=O)OC(C)(C)C)c1nnc(C)n1-2 | < 10 | < 10 | < 10 | – | – | – | – | – | – | – | – | – | 59.44 | 28.44 | 12.12 | – | 74.4 | 6.1 | 14.01 | 6.51 | Activity (PANC-1 [30]): Active

— ChEMBL document CHEMBL6096630, “Enhancing therapeutic efficacy in homologous recombination-proficient pancreatic cancer via the combination of PARP1-PROTAC and a BRD4 inhibitor” (Bioorg Med Chem, 2024)
